For data set [1], the system named is HEK293. In words: Selectivity ratio for human mGluR5 expressed in HEK293 cells to human mGluR2 expressed in CHO cell membranes. It is filed as cell-based.
For data set [2], the target named is T1, Metabotropic glutamate receptor 2 (Homo sapiens, UniProt Q14416). In words: Agonist activity at human mGLuR2 expressed in CHO cell membrane assessed as […] after 30 mins by scintillation counting relative to control. Format: functional, cell membranes.
Target sequence in this assay (Q14416 19-872 limits assumed): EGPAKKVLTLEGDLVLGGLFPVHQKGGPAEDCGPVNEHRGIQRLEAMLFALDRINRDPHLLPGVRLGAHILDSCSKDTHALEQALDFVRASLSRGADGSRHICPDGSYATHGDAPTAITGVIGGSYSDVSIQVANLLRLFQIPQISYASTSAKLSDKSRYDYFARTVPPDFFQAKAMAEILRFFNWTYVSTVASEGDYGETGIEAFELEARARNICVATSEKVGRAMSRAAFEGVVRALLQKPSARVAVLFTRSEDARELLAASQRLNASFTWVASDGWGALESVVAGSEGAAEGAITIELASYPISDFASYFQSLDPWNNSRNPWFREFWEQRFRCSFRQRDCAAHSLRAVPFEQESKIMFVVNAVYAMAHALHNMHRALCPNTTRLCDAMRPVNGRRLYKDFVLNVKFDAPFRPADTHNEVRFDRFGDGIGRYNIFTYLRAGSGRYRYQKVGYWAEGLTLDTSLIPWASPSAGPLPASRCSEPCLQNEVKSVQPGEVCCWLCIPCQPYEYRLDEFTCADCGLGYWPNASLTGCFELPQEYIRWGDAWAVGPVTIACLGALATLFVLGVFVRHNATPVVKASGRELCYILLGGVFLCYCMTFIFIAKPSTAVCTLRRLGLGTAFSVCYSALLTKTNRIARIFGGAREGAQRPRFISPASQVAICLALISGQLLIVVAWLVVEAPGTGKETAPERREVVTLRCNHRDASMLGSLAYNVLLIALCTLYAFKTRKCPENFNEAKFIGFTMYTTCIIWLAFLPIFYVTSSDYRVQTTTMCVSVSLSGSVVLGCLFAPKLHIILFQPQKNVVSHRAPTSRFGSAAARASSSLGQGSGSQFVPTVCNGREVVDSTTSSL
In data set [3] the target is T2, D(1A) dopamine receptor (Homo sapiens, UniProt P21728). The data set can be described thus: Binding affinity to dopamine D1 receptor.
T2 sequence (P21728 whole entry): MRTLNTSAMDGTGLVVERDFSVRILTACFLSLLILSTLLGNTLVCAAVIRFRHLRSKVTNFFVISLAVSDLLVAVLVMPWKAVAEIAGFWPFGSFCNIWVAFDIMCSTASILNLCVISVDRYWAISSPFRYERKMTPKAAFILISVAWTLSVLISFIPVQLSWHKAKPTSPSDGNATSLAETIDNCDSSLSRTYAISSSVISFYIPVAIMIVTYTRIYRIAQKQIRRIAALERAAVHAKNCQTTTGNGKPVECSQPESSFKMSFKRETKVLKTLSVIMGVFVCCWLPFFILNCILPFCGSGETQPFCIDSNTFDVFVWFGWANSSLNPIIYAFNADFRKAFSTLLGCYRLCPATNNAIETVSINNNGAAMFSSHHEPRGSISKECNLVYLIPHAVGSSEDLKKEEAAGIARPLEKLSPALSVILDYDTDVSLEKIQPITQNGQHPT
The test system of data set [4] is HEK293. In words: Selectivity ratio for human mGluR1 expressed in HEK293 cells to human mGluR2 expressed in CHO cell membranes. It is filed as cell-based.
In data set [5] the test system is HEK293. The data set can be described thus: Selectivity ratio for human mGluR8 expressed in HEK293 cells to human mGluR2 expressed in CHO cell membranes. It is filed as cell-based.
A short description of data set [6]: Fraction unbound in human plasma. Format: ADME, cell-free.
A short description of data set [7]: Fraction unbound in rat plasma. Format: ADME, cell-free.
For data set [8], the system named is Liver microsomes. In words: Drug metabolism in human liver microsomes assessed as O-methylated compound derivative. Format: ADME, Microsome. In general terms: Microsomes from liver hold many membrane-bound enzymes, among them those of drug oxidation.
Data set [9] relates to Liver microsomes. The data set can be described thus: Drug metabolism in human liver microsomes assessed as M+O oxidative metabolite. It is filed as ADME, Microsome.
The subject of data set [10] is HEK293. In words: Selectivity ratio for human mGluR3 expressed in HEK293 cells to human mGluR2 expressed in CHO cell membranes. It is filed as cell-based.
Data set [11] deals with HEK293. In words: Selectivity ratio for human mGluR7 expressed in HEK293 cells to human mGluR2 expressed in CHO cell membranes. Format: cell-based.
Data set [12] relates to Liver microsomes. In words: Drug metabolism in rat liver microsomes assessed as M+O oxidative metabolite. It is filed as ADME, Microsome.
In data set [13] the test system is CHO. The data set can be described thus: Selectivity ratio for rat mGluR6 to human mGluR2 expressed in CHO cell membranes. It is filed as cell-based.
The target in data set [14] is T3, Sodium-dependent dopamine transporter (Homo sapiens, UniProt Q01959). The data set can be described thus: Binding affinity to DAT.
T3 sequence (Q01959 whole entry): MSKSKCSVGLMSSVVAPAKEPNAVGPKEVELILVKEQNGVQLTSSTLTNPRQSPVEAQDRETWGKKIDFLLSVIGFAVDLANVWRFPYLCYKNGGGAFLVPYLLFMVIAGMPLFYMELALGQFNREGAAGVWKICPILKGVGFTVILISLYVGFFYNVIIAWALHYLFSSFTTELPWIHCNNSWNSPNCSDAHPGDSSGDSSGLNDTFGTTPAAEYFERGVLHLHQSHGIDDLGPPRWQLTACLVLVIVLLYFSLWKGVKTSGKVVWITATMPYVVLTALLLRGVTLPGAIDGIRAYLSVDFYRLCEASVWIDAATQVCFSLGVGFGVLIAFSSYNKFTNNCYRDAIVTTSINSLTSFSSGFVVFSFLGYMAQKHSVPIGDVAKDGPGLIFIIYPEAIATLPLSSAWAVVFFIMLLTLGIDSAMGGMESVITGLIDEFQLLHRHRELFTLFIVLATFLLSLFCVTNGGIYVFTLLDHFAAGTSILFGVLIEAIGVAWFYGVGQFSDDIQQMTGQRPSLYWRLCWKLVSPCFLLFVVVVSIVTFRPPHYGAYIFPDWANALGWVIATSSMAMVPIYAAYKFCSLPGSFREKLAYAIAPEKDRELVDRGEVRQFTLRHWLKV
The target of data set [15] is T2, D(1A) dopamine receptor. In words: Binding affinity to dopamine D1 receptor at 10 uM by CEREP assay.
The target of data set [16] is T1, Metabotropic glutamate receptor 2. In words: Displacement of [3H]JNJ-40068782 from human mGLuR2 expressed in CHO cell membrane after 60 mins by liquid scintillation counting. Format: cell membranes. Background: Displacement assays read how much labelled ligand stays bound in the presence of the test substance.
Target sequence in this assay (Q14416 whole entry): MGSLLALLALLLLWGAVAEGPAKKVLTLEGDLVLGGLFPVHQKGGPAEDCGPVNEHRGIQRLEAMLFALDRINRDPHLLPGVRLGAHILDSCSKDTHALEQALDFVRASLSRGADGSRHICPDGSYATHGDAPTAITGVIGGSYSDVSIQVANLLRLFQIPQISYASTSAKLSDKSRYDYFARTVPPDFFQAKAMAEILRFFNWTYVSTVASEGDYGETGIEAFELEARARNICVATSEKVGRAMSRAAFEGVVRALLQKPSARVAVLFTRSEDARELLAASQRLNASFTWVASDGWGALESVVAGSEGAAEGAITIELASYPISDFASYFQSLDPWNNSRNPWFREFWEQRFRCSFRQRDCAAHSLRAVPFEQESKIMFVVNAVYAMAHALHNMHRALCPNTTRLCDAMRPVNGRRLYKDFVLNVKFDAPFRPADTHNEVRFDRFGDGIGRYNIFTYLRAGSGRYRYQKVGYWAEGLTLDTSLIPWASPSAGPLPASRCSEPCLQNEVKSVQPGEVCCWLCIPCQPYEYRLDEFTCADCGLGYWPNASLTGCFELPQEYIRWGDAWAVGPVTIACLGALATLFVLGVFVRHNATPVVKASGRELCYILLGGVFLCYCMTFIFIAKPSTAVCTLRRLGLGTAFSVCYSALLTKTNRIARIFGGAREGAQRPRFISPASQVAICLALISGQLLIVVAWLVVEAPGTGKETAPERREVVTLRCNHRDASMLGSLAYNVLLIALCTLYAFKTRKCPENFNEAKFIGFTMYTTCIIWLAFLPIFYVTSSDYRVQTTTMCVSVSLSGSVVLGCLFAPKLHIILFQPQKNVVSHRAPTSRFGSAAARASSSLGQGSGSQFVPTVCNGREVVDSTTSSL
The subject of data set [17] is Liver microsomes. In words: Drug metabolism in rat liver microsomes assessed as O-methylated compound derivative. Format: ADME, Microsome.
Data set [18] deals with T3, Sodium-dependent dopamine transporter. The data set can be described thus: Binding affinity to DAT at 10 uM by CEREP assay.
For data set [19], the target named is T1, Metabotropic glutamate receptor 2. In words: Agonist activity at human mGLuR2 expressed in CHO cell membrane assessed as […] after 30 mins by scintillation counting. It is filed as functional, cell membranes. Particulars: read-out: EC50; call rule not given here.
Target sequence in this assay (Q14416 whole entry): as above
The subject of data set [20] is CHO. The data set can be described thus: Selectivity ratio for human mGluR4 to human mGluR2 expressed in CHO cell membranes. Format: cell-based.
For data set [21], the system named is Brain. The data set can be described thus: Biodistribution in Wistar rat brain at 22 Mbq, iv measured at 2 mins post administration by gamma counting. It is filed as ADME, organism-based. The settings on record: in vivo.
Data set [22] in a line: Metabolic stability in Wistar rat cerebrum assessed as intact tracer at 74 MBq, iv measured at 30 mins post administration by gamma counting. It is filed as ADME, organism-based. Particulars: read-out: Stability.
The nature of data set [23]: Metabolic stability in Wistar rat plasma assessed as intact tracer at 74 MBq, iv measured at 30 mins post administration by gamma counting. It is filed as ADME, organism-based. The settings on record: read-out: Stability.
Another data set deals with Hippocampus. In words: Ratio of SUV in hippocampus in iv dosed Wistar at 2 mins post administration by gamma counting to SUV in hippocampus in iv dosed Wistar at 30 mins post administration by gamma counting. It is filed as ADME, organism-based. Particulars: rat, in vivo.
The next data set deals with Rattus norvegicus. In words: Biodistribution in Wistar rat urinary system at 22 Mbq, iv measured at 60 mins post administration by gamma counting. Format: ADME, organism-based, Urine. Particulars: in vivo, 1 h.
The next data set relates to Striatum. The data set can be described thus: Ratio of SUV in striatum in iv dosed Wistar at 2 mins post administration by gamma counting to SUV in striatum in iv dosed Wistar at 30 mins post administration by gamma counting. It is filed as ADME, organism-based. The settings on record: rat, in vivo.
Data set [24] is described as follows: Metabolic stability in Wistar rat cerebellum assessed as intact tracer at 74 MBq, iv measured at 30 mins post administration by gamma counting. Particulars: read-out: Stability. It is filed as ADME, organism-based.
In data set [25] the test system is Cerebrum. In words: Ratio of SUV in cerebrum in iv dosed Wistar at 2 mins post administration by gamma counting to SUV in cerebrum in iv dosed Wistar at 30 mins post administration by gamma counting. Format: ADME, organism-based. Particulars: rat, in vivo.
In a further data set the test system is Intestine. The data set can be described thus: Biodistribution in Wistar rat intestine at 22 Mbq, iv measured at 60 mins post administration by gamma counting. It is filed as ADME, organism-based. The settings on record: in vivo, 1 h.
In data set [26] the test system is Brain. In words: Ratio of SUV in total brain in iv dosed Wistar at 2 mins post administration by gamma counting to SUV in total brain in iv dosed Wistar at 30 mins post administration by gamma counting. It is filed as ADME, organism-based. The settings on record: rat, in vivo.
Data set [27] concerns Cerebellum. The data set can be described thus: Ratio of SUV in cerebellum in iv dosed Wistar at 2 mins post administration by gamma counting to SUV in cerebellum in iv dosed Wistar at 30 mins post administration by gamma counting. Format: ADME, organism-based. The settings on record: rat, in vivo.
Data set [28] has as its system Cerebellum. The data set can be described thus: Biodistribution in Wistar rat cerebellum at 22 Mbq, iv measured at 2 mins post administration by gamma counting. Particulars: in vivo. It is filed as ADME, organism-based.
The next data set has as its system Liver. The data set can be described thus: Biodistribution in Wistar rat liver at 22 Mbq, iv measured at 60 mins post administration by gamma counting. Format: ADME, organism-based. The settings on record: in vivo, 1 h.
A further data set concerns Cortex. In words: Ratio of SUV in cortex in iv dosed Wistar at 2 mins post administration by gamma counting to SUV in cortex in iv dosed Wistar at 30 mins post administration by gamma counting. Format: ADME, organism-based. The settings on record: rat, in vivo.
In data set [29] the test system is Cerebrum. The data set can be described thus: Biodistribution in Wistar rat cerebrum at 22 Mbq, iv measured at 2 mins post administration by gamma counting. Particulars: in vivo. Format: ADME, organism-based.
Data set [30] is described as follows: Ratio of drug level in brain to plasma of Wistar rat brain at 0.63 mg/kg, iv. The settings on record: read-out: BPR. Also noted: dose 0.63 mg/kg, route intravenous. Format: ADME, organism-based.
A short description of data set [31]: Cmax in Wistar rat brain at 0.63 mg/kg, iv after 5 mins. Format: ADME, organism-based. Also noted: dose 0.63 mg/kg, route intravenous.
Data set [32] in a line: Drug level in Wistar rat brain at 0.63 mg/kg, iv after 1 hr. Format: ADME, organism-based. The settings on record: read-out: Drug uptake. Also noted: dose 0.63 mg/kg, route intravenous.

pEC50, pIC50, pKi: −log10 of the molar value. A value given as a limit tells only on which side of the number the result lay.

In general, Emax refers to the greatest response seen or fitted, relative to the assay's reference. By pKi is commonly meant the negative decadic logarithm of the Ki, by convention in mol/L. Lower therefore signals a high Ki. In general, fraction unbound refers to the share of the substance not bound to proteins or other matrix. One may read the pIC50 as the negative decadic logarithm of the IC50, by convention in mol/L. The low end stands for a large IC50, the high end for a small IC50. In general, pEC50 refers to the negative decadic logarithm of the EC50, by convention in mol/L. On to `COc1c(F)ccc(F)c1C1CCN(c2ccn3c(CC4CC4)nnc3c2Cl)CC1`, for which the Selectivity ratio in the data set on HEK293 [1], in the data set on HEK293 [4], in the data set on HEK293 [5], with HEK293 [10], in the data set with HEK293 [11] and in the data set with CHO [13] was above 350 throughout. The Selectivity ratio in the data set with CHO [20] is above 350. Besides, in data set [2], the Emax is 282%. The figures for the pKi (on D(1A) dopamine receptor [3]; in data set [14]) were at most 5.21 and below 5.07, respectively. Besides, the fraction unbound in data set [6] and in [7] was below 0.01 throughout. Besides, the Drug metabolism entry with Liver microsomes [8], in the data set with Liver microsomes [9], with Liver microsomes [12] and with Liver microsomes [17] was “Active” throughout. Also, the Activity worked out at 76% on D(1A) dopamine receptor [15] and 52% in data set [18]. The same compound gave a negative logarithm of the IC50 (pIC50) in data set [16] of 8.03. In addition, the pEC50 in data set [19] was 8.12.

In the case of `[11CH3]Oc1ccc(F)cc1C1CCN(c2ccn3c(CC4CC4)nnc3c2Cl)CC1`, the Drug uptake in the data set with Brain [21] is recorded as 0.58 %ID; with Rattus norvegicus, “Active”; in the data set on Intestine, “Active”; with Cerebellum [28], 0.1 %ID; in the data set on Liver, “Active”; with Cerebrum [29] it was 0.45 %ID. Further, the figures for the remaining at 0.5 h in data set [22], in [23] and in data set [24] were 92.4%, 41% and 92.7%, respectively. Moreover, the Ratio in the data set with Hippocampus is 0.66; in the data set with Striatum, 0.63; in the data set with Cerebrum [25], 0.83; in the data set with Brain [26], 0.79; in the data set with Cerebellum [27], 0.63; with Cortex, 0.88.

Turning to `[11CH3]Oc1cc(F)cc(F)c1C1CCN(c2ccn3c(CC4CC4)nnc3c2Cl)CC1`, the Drug uptake in the data set with Brain [21] is recorded as 0.75 %ID; with Rattus norvegicus, “Active”; in the data set with Intestine, “Active”; in the data set on Cerebellum [28], 0.18 %ID; with Liver it was “Active”; in the data set on Cerebrum [29] it was 0.53 %ID. The results for the remaining at 0.5 h in data set [22], in data set [23] and in data set [24] were 92.9%, 30.8% and 95.5%, respectively. Besides, the Ratio was 0.71 in the data set on Hippocampus; 0.67 with Striatum; 0.72 in the data set with Cerebrum [25]; 0.88 with Brain [26]; 0.77 with Cerebellum [27]; 0.66 in the data set with Cortex.

A word on the Cmax: it is the highest concentration seen after dosing. As to `COc1ccc(F)cc1C1CCN(c2ccn3c(CC4CC4)nnc3c2Cl)CC1`, the Selectivity ratio with HEK293 [1] is above 350; in the data set on HEK293 [4] it was above 350; in the data set on HEK293 [5], above 350; in the data set on HEK293 [10] it was 40; in the data set with HEK293 [11], above 350; in the data set on CHO [13] it was above 350. Besides, in the data set with CHO [20], the Selectivity ratio is above 350. Further, the maximal response (Emax) in [2] worked out at 283%. The pKi on D(1A) dopamine receptor [3] is at most 5.21; in data set [14] it was 5.30. Moreover, the free fraction (fraction unbound) in data set [6] and in [7] was below 0.01 each time. In data set [30], the Kp worked out at 1.1. The Cmax in [31] was determined as 316 ng/g. The concentration at 1 h in data set [32] came to 50 ng/g. Moreover, the Drug metabolism result in the data set with Liver microsomes [8], in the data set with Liver microsomes [9], with Liver microsomes [12] and in the data set on Liver microsomes [17] was “Active” in each case. For the same compound, the Activity on D(1A) dopamine receptor [15] was determined as 71%; in [18] it was 83%. Further, the pIC50 in [16] was 7.95. Moreover, the pEC50 in data set [19] was 8.09.

These data come from ChEMBL document CHEMBL2202996, “Synthesis, evaluation, and radiolabeling of new potent positive allosteric modulators of the metabotropic glutamate receptor 2 as potential tracers for positron emission tomography imaging” (J Med Chem, 2012).
